According to patent publication US20140288079A1, “SGC STIMULATORS OF SGC ACTIVATORS IN COMBINATION WITH PDE5 INHBITORS FOR THE TREATMENT OF ERECTILE DYSFUNCTION” (BAYER PHARMA AKTIENGESELLSCHAFT, priority 2009, published 2014):
Values belong to the molecule of their own block, whether it stands above or below them.

Legend:
[1] = tested on: conscious male chinchilla rabbits; assay: conscious rabbit ED model, high SNP dose (0.2 mg/kg i.v.), general ED population; format: in vivo; details: summary of Example 1; rabbits and rats; in the range of vardenafil
Description: (§1) The conscious rabbit ED model previously described (Bischoff and Schneider 2001) was used for the investigation of Erectile function. In brief: conscious male chinchilla rabbits (3-4 kg) were orally treated with the test compounds or with vehicle via gavage, followed by i.v. injection of the NO-donnor sodium nitro-prusside (SNP) in the ear vein, 90 minutes after oral applications. The SNP injections were done in a high dose setting (0.2 mg/kg SNP i.v) and a low dose setting (0.02 mg/kg SNP i.v.) corresponding to the general ED-population and the PDE5 non-responder ED-population, respectively. Penile length was quantified in 5 minutes intervals after injection of the SNP.
The conscious rabbit ED model previously described (Bischoff and Schneider 2001) was used for the investigation of Erectile function as described in Example 1. The SNP injections were done in a high dose setting (0.2 mg/kg SNP i.v) corresponding to the general ED-population in which PDE5 inhibitors are fully active. Penile length was quantified in 5 minutes intervals after injection of the SNP.
The conscious rabbit ED model as described in Expample 1 and Example 6 was used for assessment of responderrates. […] Penile length was quantified in 5 minutes intervals after injection of the SNP. […]

[2] = tested on: conscious male chinchilla rabbits; assay: haemodynamic effects by telemetry in conscious rabbits; format: in vivo, rabbit; details: stand alone
Excerpt: In brief, telemetric implants (C50 PXT-DSI®) were used. Signals were received with RMC1-DSI® receiver plates, compiled and analyzied with PONEMAH® physiology platform software.

[3] = previous studies; single administration of 2.0 mg BAY 60-4552; cited from earlier work
[4] = tested on: involved metabolic enzymes; details: stated as fact; cited from earlier work
[5] = phase I study #14441, pharmacokinetics of co-administration; format: in vivo, human; details: for half-life / Tmax: male, human, plasma, po; for Tmax: read-out: median tmax
Excerpt: The study was designed as a randomized, single-blind, placebo-controlled, group-comparison, dose-escalation study.

[6] = tested on: conscious male chinchilla rabbits; assay: conscious rabbit ED model, low SNP dose (0.02 mg/kg i.v.), PDE5-resistant ED; format: in vivo
Description: as §1

[7] = tested on: rabbits; details: intravenous and oral applications; cited from earlier work

dose proportionality of exposure ([5]; BAY 60-4552 1 mg to 2 mg in combination with vardenafil 2.5 mg to 20 mg): increased in proportion to the dose | exposure following concomitant administration versus each compound alone [5]: consistent with historical data | time linearity of pharmacokinetics ([5]; in vivo): time linear | half-life [5]: 13 to 14 h | Tmax [5]: 0.5 to 1 h
SMILES: COC(=O)Nc1c(N)nc(-c2nn(Cc3ccccc3F)c3ncccc23)nc1N [BAY 60-4552, methyl-4,6-diamino-2-[1-(2-fluorobenzyl)-1H-pyrazolo[3,4-b]pyridin-3-yl]-5-pyrimidinylcarbamate]
erections, stand alone treatment [1]: significant erections | decrease in mean arterial blood pressure ([2]; 1 mg/kg p.o.): −5 mmHg | heart rate increase ([2]; 1 mg/kg p.o.): +24 bpm | decrease in blood pressure ([2]; 3 mg/kg): −11 mmHg | heart rate increase ([2]; 3 mg/kg): +51 bpm | decrease in blood pressure ([2]; 10 mg/kg): −22 mmHg | heart rate increase ([2]; 10 mg/kg): +103 bpm | effect on heart rate and blood pressure [3]: no clinically relevant effect on heart rate and blood pressure | inhibitor or inducer of the involved metabolic enzymes [4]: neither vardenafil nor BAY 60-4552 is an inhibitor or inducer | penile erection (penile length) ([6]; low SNP 0.02 mg/kg i.v., 3 and 10 mg/kg p.o. stand alone): able to induce physiologically relevant erections

SMILES: COC(=O)N(C)c1c(N)nc(-c2nn(Cc3ccccc3F)c3ncccc23)nc1N [BAY 63-2521, methyl-4,6-diamino-2-[1-(2-fluorobenzyl)-1H-pyrazolo[3,4-b]pyridin-3-yl]-5-pyrimidinyl-(methyl)carbamate]
erections [7]: induced stable erections

SMILES: CCCc1nn(C)c2c(=O)[nH]c(-c3cc(S(=O)(=O)N4CCN(C)CC4)ccc3OCC)nc12 [Sildenafil, 3-[2-ethoxy-5-(4-methylpiperazin-1-yl)sulfonyl-phenyl]-7-methyl-9-propy 1-2,4,7,8-tetrazabicyclo[4.3.0]nona-3,8,10-trien-5-one, reference compound]
penile erection (penile length) ([6]; rabbit, in vivo): not able to produce any physiologically relevant erection

exposure following concomitant administration versus each compound alone [5]: consistent with historical data | half-life [5]: 3 to 5 h | Tmax [5]: 0.75 to 1 h | dose proportionality of AUC and Cmax ([5]; vardenafil 2.5 mg to 10 mg in combination with 1 mg or 2 mg BAY 60-4552): dose-proportional
SMILES: CCCc1nc(C)c2c(=O)[nH]c(-c3cc(S(=O)(=O)N4CCN(CC)CC4)ccc3OCC)nn12 [Vardenafil, 2-(2-Ethoxy-5-(4-ethylpiperazin-1-yl-1-sulfonyl)phenyl)-5-methyl-7-propyl-3H-imidazo (5,1-f) (1,2,4)triazin-4-one, reference compound]
decrease in mean arterial blood pressure ([2]; 1 mg/kg p.o.): −4 mmHg | heart rate increase ([2]; 1 mg/kg p.o.): +14 bpm | dose proportionality of exposure ([5]; 20 mg vardenafil level): slightly higher than proportional exposure
